In patent US20090304692A1, “TRIAZINE COMPOUNDS AS PI3 KINASE AND MTOR INHIBITORS” (Wyeth, priority 2008, published 2009):
pIC50: −log10 of the molar value. Where “and” joins values, the source holds several entries; their conditions need not be identical. Equal entries are not always repeated. Where two headings read alike, the source gives them in different places.

How the values were obtained:
Human mTOR (FLAG-TOR) = Human mTOR (FLAG-TOR) (Homo sapiens, UniProt P42345); test: mTOR kinase assay (DELFIA format, purified enzyme); assay type: biochemical
Chain of Human mTOR (FLAG-TOR) (P42345 1360-2549 limits assumed): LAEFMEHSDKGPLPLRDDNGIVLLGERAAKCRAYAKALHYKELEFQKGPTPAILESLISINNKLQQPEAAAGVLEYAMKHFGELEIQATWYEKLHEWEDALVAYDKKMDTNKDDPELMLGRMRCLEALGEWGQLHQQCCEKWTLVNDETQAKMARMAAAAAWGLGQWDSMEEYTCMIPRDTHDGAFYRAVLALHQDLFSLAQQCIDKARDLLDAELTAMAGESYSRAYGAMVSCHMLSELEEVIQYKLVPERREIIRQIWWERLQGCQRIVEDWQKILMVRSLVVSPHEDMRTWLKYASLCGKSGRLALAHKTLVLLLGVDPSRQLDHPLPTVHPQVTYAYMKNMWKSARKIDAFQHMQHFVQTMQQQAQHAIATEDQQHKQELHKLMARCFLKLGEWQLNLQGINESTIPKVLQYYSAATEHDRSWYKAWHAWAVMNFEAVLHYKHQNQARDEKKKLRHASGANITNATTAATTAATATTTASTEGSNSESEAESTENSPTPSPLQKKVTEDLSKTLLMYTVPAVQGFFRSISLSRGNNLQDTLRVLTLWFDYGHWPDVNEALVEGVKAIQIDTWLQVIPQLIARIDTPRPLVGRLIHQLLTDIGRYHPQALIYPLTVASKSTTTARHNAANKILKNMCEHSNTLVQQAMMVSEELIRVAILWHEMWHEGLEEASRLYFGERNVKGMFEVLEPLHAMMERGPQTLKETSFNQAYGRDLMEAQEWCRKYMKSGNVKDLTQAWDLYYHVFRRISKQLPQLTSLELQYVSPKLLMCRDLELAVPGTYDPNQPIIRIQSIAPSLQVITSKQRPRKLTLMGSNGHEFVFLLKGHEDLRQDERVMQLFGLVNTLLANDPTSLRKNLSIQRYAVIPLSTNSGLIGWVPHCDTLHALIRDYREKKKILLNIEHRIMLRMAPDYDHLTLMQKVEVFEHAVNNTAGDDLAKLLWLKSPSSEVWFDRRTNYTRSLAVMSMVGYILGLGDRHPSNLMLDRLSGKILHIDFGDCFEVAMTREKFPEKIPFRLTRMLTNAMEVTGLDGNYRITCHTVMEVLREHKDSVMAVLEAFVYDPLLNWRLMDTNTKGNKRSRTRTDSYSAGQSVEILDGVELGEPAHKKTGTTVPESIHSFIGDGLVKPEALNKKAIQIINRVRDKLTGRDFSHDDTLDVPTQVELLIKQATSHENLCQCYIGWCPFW

[1] = test system: human breast MDA-MB-361 tumor cell line; test: In vitro cell culture growth assay (MTS), MDA-MB-361; assay type: cell-based; conditions: Homo sapiens, MDA-MB-361, 72 h
[2] = test system: human prostate PC3-mm2 tumor cell line; test: In vitro cell culture growth assay (MTS), PC3-mm2; assay type: cell-based; conditions: Homo sapiens, PC3MM2, 72 h
PI3K-α = PI3K-α (Homo sapiens, UniProt P42336); test: PI3K-alpha fluorescence polarization assay; conditions: read-out: IC50 PI3Kα
Chain of PI3K-α (P42336 whole entry, species assumed): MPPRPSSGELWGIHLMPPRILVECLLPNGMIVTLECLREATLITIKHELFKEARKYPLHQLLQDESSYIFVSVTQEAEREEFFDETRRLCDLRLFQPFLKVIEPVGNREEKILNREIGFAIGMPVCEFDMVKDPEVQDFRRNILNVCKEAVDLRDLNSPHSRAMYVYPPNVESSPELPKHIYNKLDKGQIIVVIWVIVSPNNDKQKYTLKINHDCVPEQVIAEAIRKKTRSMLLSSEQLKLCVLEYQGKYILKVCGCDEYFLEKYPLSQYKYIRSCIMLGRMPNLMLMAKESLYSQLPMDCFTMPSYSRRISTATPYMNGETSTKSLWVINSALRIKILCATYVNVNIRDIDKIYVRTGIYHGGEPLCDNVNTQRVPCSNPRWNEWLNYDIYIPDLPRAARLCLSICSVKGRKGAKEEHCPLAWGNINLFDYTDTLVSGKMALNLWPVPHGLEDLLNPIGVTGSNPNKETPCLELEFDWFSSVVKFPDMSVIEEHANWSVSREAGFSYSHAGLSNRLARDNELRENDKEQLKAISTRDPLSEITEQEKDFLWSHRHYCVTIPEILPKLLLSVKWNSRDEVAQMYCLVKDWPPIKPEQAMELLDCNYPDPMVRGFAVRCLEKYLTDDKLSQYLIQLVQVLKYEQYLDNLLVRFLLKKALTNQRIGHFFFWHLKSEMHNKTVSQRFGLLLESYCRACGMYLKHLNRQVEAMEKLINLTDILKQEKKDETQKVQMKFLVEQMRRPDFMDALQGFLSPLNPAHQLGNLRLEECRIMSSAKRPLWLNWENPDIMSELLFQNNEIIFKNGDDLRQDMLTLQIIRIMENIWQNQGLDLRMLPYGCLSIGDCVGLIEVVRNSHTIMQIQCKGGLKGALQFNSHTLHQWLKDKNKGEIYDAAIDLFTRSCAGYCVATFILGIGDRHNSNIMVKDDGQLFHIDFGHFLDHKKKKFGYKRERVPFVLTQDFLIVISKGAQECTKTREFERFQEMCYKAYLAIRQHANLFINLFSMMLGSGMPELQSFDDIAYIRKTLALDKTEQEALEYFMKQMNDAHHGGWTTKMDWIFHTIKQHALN
Chain of PI3K-α (P27986 whole entry partner, species assumed): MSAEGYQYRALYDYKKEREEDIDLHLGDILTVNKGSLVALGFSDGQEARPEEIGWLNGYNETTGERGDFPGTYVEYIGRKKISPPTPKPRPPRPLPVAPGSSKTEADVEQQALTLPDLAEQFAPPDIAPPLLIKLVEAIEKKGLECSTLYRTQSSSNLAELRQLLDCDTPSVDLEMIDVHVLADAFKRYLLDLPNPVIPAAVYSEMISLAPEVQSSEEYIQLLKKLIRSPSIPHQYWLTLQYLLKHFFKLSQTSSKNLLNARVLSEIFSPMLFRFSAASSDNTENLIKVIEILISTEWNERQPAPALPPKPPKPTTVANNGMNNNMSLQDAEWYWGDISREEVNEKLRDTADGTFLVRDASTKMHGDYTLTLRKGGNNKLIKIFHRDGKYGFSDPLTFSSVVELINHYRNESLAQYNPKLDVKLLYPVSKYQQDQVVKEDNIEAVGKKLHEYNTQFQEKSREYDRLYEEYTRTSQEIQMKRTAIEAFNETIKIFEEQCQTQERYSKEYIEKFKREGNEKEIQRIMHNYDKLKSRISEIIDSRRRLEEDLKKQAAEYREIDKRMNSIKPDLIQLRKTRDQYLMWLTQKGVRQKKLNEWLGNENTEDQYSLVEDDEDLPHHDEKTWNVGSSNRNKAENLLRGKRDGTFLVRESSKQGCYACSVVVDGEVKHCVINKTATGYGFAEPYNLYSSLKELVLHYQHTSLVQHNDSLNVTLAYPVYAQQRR

PI3K-γ = PI3K-γ (Homo sapiens, UniProt P48736); test: PI3K-gamma fluorescence polarization assay; conditions: read-out: IC50 PI3Kγ
Chain of PI3K-γ (P48736 whole entry, species assumed): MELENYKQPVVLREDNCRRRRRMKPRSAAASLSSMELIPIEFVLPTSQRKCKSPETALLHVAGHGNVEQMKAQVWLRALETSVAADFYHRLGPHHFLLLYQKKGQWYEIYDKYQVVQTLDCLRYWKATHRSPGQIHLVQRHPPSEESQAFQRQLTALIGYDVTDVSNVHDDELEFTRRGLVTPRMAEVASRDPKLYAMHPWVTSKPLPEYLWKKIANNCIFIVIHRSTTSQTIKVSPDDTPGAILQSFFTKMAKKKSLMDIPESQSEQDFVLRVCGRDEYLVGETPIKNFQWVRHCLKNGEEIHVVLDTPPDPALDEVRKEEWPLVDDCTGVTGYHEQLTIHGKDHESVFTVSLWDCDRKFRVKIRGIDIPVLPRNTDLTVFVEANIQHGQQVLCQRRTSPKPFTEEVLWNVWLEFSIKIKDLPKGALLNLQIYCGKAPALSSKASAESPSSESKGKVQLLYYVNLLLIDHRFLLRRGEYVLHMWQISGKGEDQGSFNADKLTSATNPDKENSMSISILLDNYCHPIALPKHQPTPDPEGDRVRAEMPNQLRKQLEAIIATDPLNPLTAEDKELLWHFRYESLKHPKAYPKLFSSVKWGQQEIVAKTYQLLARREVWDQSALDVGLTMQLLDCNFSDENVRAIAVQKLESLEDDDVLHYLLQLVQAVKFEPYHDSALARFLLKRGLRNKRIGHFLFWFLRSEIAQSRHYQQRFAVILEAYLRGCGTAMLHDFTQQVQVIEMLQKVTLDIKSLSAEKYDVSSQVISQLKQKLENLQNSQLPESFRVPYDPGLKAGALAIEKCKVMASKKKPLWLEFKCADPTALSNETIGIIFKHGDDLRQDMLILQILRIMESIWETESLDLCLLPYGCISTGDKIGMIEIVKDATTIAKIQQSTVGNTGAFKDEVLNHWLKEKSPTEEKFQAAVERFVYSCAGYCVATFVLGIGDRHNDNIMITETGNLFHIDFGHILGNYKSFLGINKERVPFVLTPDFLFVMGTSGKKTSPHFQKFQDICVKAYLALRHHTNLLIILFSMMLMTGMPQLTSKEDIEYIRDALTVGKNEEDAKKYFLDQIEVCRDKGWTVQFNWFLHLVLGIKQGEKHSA

[3] = MTS cell growth assay, three days after drug treatment, MDA-MB-361 cells, read-out: IC50 MDA-MB-361
[4] = MTS cell growth assay, three days after drug treatment, read-out: IC50 MDA-MB-361
[5] = MTS cell growth assay, three days after drug treatment, PC3-mm2 cells, read-out: IC50 PC3-mm2
[6] = MTS cell growth assay, three days after drug treatment, read-out: IC50 PC3-mm2
[7] = read-out: IC50 MDA-MB-361, MTS cell growth assay, three days after drug treatment
[8] = read-out: IC50 PC3-mm2, MTS cell growth assay, three days after drug treatment

pIC50 [1, 4]	pIC50 [2, 6]	pIC50 (PI3K-α)	pIC50 (PI3K-γ)	pIC50 (Human mTOR (FLAG-TOR); read-out: IC50 mTOR)	SMILES	further results
		7.89	7.07	8.60	COC(=O)c1ccc(NC(=O)Nc2ccc(-c3nc(N4CCOCC4)nc(N4CCOCC4)n3)cc2)cc1 [Example 58, methyl 4-({[4-(4,6-dimorpholin-4-yl-1,3,5-triazin-2-yl)phenyl]carbamoyl}amino)benzoate]	pIC50 [1, 7]: 6.94; pIC50 [2, 8]: 7.35
7.08	7.04	8.30	7.44	8.74	O=C(Nc1ccccc1)Nc1ccc(-c2nc(OC3CCOCC3)nc(N3CCOCC3)n2)cc1 [Example 60, 1-{4-[4-morpholin-4-yl-6-(tetrahydro-2H-pyran-4-yloxy)-1,3,5-triazin-2-yl]phenyl}-3-phenylurea]	
7.32	7.64	8.05	7.49	9.12	O=C(Nc1ccc(-c2nc(OC3CCOCC3)nc(N3CCOCC3)n2)cc1)Nc1cccnc1 [Example 61, 1-{4-[4-morpholin-4-yl-6-(tetrahydro-2H-pyran-4-yloxy)-1,3,5-triazin-2-yl]phenyl}-3-pyridin-3-ylurea]	
7.57	7.47	8.70	7.62	9.17	O=C(Nc1ccc(CO)cc1)Nc1ccc(-c2nc(OC3CCOCC3)nc(N3CCOCC3)n2)cc1 [Example 62, 1-[4-(hydroxymethyl)phenyl]-3-{4-[4-morpholin-4-yl-6-(tetrahydro-2H-pyran-4-yloxy)-1,3,5-triazin-2-yl]phenyl}urea]	
7.16	7.21	8.30	7.44	8.71	Cc1cc(NC(=O)Nc2ccc(-c3nc(OC4CCOCC4)nc(N4CCOCC4)n3)cc2)ccn1 [Example 63, 1-(2-methylpyridin-4-yl)-3-{4-[4-morpholin-4-yl-6-(tetrahydro-2H-pyran-4-yloxy)-1,3,5-triazin-2-yl]phenyl}urea]	
6.82	6.57	7.82	7.08	8.30	CC(=O)c1cccc(NC(=O)Nc2ccc(-c3nc(OC4CCOCC4)nc(N4CCOCC4)n3)cc2)c1 [Example 65, 1-(3-acetylphenyl)-3-{4-[4-morpholin-4-yl-6-(tetrahydro-2H-pyran-4-yloxy)-1,3,5-triazin-2-yl]phenyl}urea]	
7.23	7.18	8.15	7.52	8.78	CN(C)c1ccc(NC(=O)Nc2ccc(-c3nc(OC4CCOCC4)nc(N4CCOCC4)n3)cc2)cc1 [Example 66, 1-[4-(dimethylamino)phenyl]-3-{4-[4-morpholin-4-yl-6-(tetrahydro-2H-pyran-4-yloxy)-1,3,5-triazin-2-yl]phenyl}urea]	
		8.22	7.32	8.84	O=C(Nc1ccc(C(=O)O)cc1)Nc1ccc(-c2nc(N3CCOCC3)nc(N3CCOCC3)n2)cc1 [Example 67, 4-[3-{4-(4,6-dimorpholino-1,3,5-triazin-2-yl)phenyl}ureido]benzoic acid]	pIC50 [1, 7]: 6.09; pIC50 [2, 8]: 7.55

Continued, compound first:

SMILES	pIC50 [1, 4]	pIC50 [2, 6]	pIC50 (PI3K-α)	pIC50 (PI3K-γ)	pIC50 (Human mTOR (FLAG-TOR); read-out: IC50 mTOR)	further results
O=C(Nc1ccc(F)cc1)Nc1ccc(-c2nc(N3CCOCC3)nc(N3C4CCC3COC4)n2)cc1 [Example 37, 1-(4-fluorophenyl)-3-{4-[4-morpholin-4-yl-6-(3-oxa-8-azabicyclo[3.2.1]oct-8-yl)-1,3,5-triazin-2-yl]phenyl}urea]	7.01	6.75	7.41	6.81		pIC50 (Human mTOR (FLAG-TOR); IC50 mTOR): 8.71; pIC50 [1, 3]: 7.01; pIC50 [2, 5]: 6.75; pIC50 (PI3K-α; listed as 672): 7.40; pIC50 (PI3K-γ; listed as 672): 6.81
O=C(Nc1ccc(CO)cc1)Nc1ccc(-c2nc(N3CCOCC3)nc(N3C4CCC3COC4)n2)cc1 [Example 38, 1-[4-(hydroxymethyl)phenyl]-3-{4-[4-morpholin-4-yl-6-(3-oxa-8-azabicyclo[3.2.1]oct-8-yl)-1,3,5-triazin-2-yl]phenyl}urea]	7.82	7.55	8.15	7.04	9.55 and 9.37	pIC50 [2, 5]: 7.55; pIC50 (PI3K-γ; listed as 673): 7.01
O=C(Nc1ccc(CCO)cc1)Nc1ccc(-c2nc(N3CCOCC3)nc(N3C4CCC3COC4)n2)cc1 [Example 39, 1-[4-(2-hydroxyethyl)phenyl]-3-{4-[4-morpholin-4-yl-6-(3-oxa-8-azabicyclo[3.2.1]oct-8-yl)-1,3,5-triazin-2-yl]phenyl}urea]	7.66	7.52	7.85	7.12	9.49	pIC50 [2, 5]: 7.52; pIC50 (PI3K-γ; listed as 674): 7.13
Cc1ccc(NC(=O)Nc2ccc(-c3nc(N4CCOCC4)nc(N4C5CCC4COC5)n3)cc2)cc1 [Example 41, 1-(4-methylphenyl)-3-{4-[4-morpholin-4-yl-6-(3-oxa-8-azabicyclo[3.2.1]oct-8-yl)-1,3,5-triazin-2-yl]phenyl}urea]	6.78	6.52	7.16	6.91	8.89	pIC50 [1, 3]: 6.78; pIC50 [2, 5]: 6.52; pIC50 (PI3K-α; listed as 676): 7.16
N#Cc1ccc(NC(=O)Nc2ccc(-c3nc(N4CCOCC4)nc(N4C5CCC4COC5)n3)cc2)cc1 [Example 42, 1-(4-cyanophenyl)-3-{4-[4-morpholin-4-yl-6-(3-oxa-8-azabicyclo[3.2.1]oct-8-yl)-1,3,5-triazin-2-yl]phenyl}urea]	6.46	5.44	7.07	6.54	8.47	pIC50 [2, 5]: 5.44; pIC50 (PI3K-α; listed as 677): 7.06
CN1CCN(c2ccc(NC(=O)Nc3ccc(-c4nc(N5CCOCC5)nc(N5C6CCC5COC6)n4)cc3)cc2)CC1 [Example 43, 1-[4-(4-methylpiperazin-1-yl)phenyl]-3-{4-[4-morpholin-4-yl-6-(3-oxa-8-azabicyclo[3.2.1]oct-8-yl)-1,3,5-triazin-2-yl]phenyl}urea]	7.45	7.40	7.55	7.46	9.11 and 8.78 and 8.93	pIC50 [1, 3]: 7.45; pIC50 [2, 5]: 7.40; pIC50 (PI3K-α; listed as 229): 7.72; pIC50 (PI3K-α; listed as 678): 7.67; pIC50 (PI3K-γ; listed as 229): 7.15; pIC50 (PI3K-γ; listed as 678): 7.34
O=C(Nc1ccc(-c2nc(N3CCOCC3)nc(N3CC4CCC(C3)O4)n2)cc1)Nc1cccnc1 [Example 47, 1-{4-[4-morpholin-4-yl-6-(8-oxa-3-azabicyclo[3.2.1]oct-3-yl)-1,3,5-triazin-2-yl]phenyl}-3-pyridin-3-ylurea]	6.94	7.02	7.89	7.28	8.80	
Cc1cc(NC(=O)Nc2ccc(-c3nc(N4CCOCC4)nc(N4CCOCC4)n3)cc2)ccn1 [Example 49, 1-[4-(4,6-dimorpholin-4-yl-1,3,5-triazin-2-yl)phenyl]-3-(2-methylpyridin-4-yl)urea]	7.08	7.10	8.52	7.68	8.00 and 8.05	
O=C(Nc1ccc(CCO)cc1)Nc1ccc(-c2nc(N3CCOCC3)nc(N3CCOCC3)n2)cc1 [Example 50, 1-[4-(4,6-dimorpholin-4-yl-1,3,5-triazin-2-yl)phenyl]-3-[4-(2-hydroxyethyl)phenyl]urea]			9.00	7.68	8.70	pIC50 [1, 7]: 7.44; pIC50 [2, 8]: 7.41
O=C(Nc1ccc(CO)cc1)Nc1ccc(-c2nc(N3CCOCC3)nc(N3CCOCC3)n2)cc1 [Example 51, 1-[4-(4,6-dimorpholin-4-yl-1,3,5-triazin-2-yl)phenyl]-3-[4-(hydroxymethyl)phenyl]urea]	> 7.52	> 7.52	9.00	7.82	8.72	
O=C(Nc1ccc(-c2nc(N3CCOCC3)nc(N3CCOCC3)n2)cc1)Nc1ccc(C(F)(F)F)cc1 [Example 53, 1-[4-(4,6-dimorpholin-4-yl-1,3,5-triazin-2-yl)phenyl]-3-[4-(trifluoromethyl)phenyl]urea]	6.18	6.01	7.35	6.39	7.62 and 7.74	
O=C(Nc1ccc(O)cc1)Nc1ccc(-c2nc(N3CCOCC3)nc(N3CCOCC3)n2)cc1 [Example 54, 1-[4-(4,6-dimorpholin-4-yl-1,3,5-triazin-2-yl)phenyl]-3-(4-hydroxyphenyl)urea]	6.88	6.67	8.00	7.06	8.32	
CC(O)c1cccc(NC(=O)Nc2ccc(-c3nc(N4CCOCC4)nc(N4CCOCC4)n3)cc2)c1 (stereo not shown) [Example 57, 1-[4-(4,6-dimorpholin-4-yl-1,3,5-triazin-2-yl)phenyl]-3-[3-(1-hydroxyethyl)phenyl]urea]	6.92	6.73	8.10	7.13	7.78	
